Results taken from US20110190306A1, “Inhibitors of PLK” (CHROMA THERAPEUTICS LTD., priority 2008, published 2011).

Tested on: HCT 116 cell line
Test: Cell inhibition assay (WST-1 proliferation), HCT-116
Type: cell-based
Conditions: Homo sapiens, 72 hrs incubation, read-out: Inhibitor Activity vs HCT 116 cell line
Description: Cells were seeded in 96W tissue culture plates (1 well=30 mm^2) in 50 μl of the appropriate culture medium (see below). Seeding densities were cell-line dependent: HCT-116=1000 cells per well, Hut-78=2250 cells per well, U937 cells=2000 cells per well. 24 hrs later 50 μL of the compound prepared in the same medium was added as 4 fold dilutions to give final concentrations in the range 0.15 nM-2500 nM (n=6 for each concentration). The plates were then incubated at 37° C., 5% CO2 for 72 hrs. Cell proliferation was assessed using WST-1 (a metabolic indicator dye, Roche Cat no. 1 644 807) according to the manufacturers instructions. The results were calculated as percentage of vehicle response and IC50 values represent the concentration of compound that inhibited the vehicle response by 50%.
HCT-116 Culture Medium—Dulbeccos MEM (Sigma D6546) plus 10% heat inactivated fetal calf serum (Hyclone SH30071 Thermo Fischer Scientific) containing 2 mM Glutamine (Sigma cat no G-7513) and 50 U/mL Penicillin and Streptomycin Sulphate (Sigma Cat no P-0781).

IC50: 0.1 to 0.5 µM
SMILES: CC[C@@H]1C(=O)N(C)c2cnc(Nc3ccc(C(=O)NC4CCN(CC[C@](C)(N)C(=O)OC)CC4)cc3OC)nc2N1C1CCCC1 [Example 1, Methyl 4-{4-[(4-{[(7R)-8-cyclopentyl-7-ethyl-5-methyl-6-oxo-5,6,7,8-tetrahydropteridin-2-yl]amino}-3-methoxybenzoyl)amino]piperidin-1-yl}isovalinate]
